Experiment in all cases: NCI anticancer screen, dose series, 48 h
The test system of test [1] is Hs-578T.
Test [2] concerns HL-60.
In test [3] the test system is SK-MEL-2.
Test [4] relates to RPMI-8226.
Test [5] relates to NCI-H522.
For test [6], the system named is SW-620.
In test [7] the test system is IGROV-1.
For test [8], the system named is SNB-75.
For test [9], the system named is U-251.
In test [10] the test system is HCT-116.
Test [11] deals with PC-3.
Test [12] has as its system SR.
Test [13] concerns UACC-62.
Test [14] concerns K562.
Test [15] has as its system HOP-62.
For test [16], the system named is UO-31.
In test [17] the test system is MDA-MB-231.
In test [18] the test system is A498.
Test [19] relates to HT-29.
Test [20] deals with TK-10.

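Cultured in 96-well plates, cells were exposed to test compound for 48 hours across five concentrations. Here, GI50 denotes the concentration required for 50% inhibition of growth.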 Activity calls are given as the source filed them. Rule as the data show it: active = GI50 up to about 1.1 µM and inactive = higher. A value given as a limit tells only on which side of the number the result lay.

Results on 5 compounds are retold here after ChEMBL document CHEMBL1201862, “PubChem BioAssay data set” (2004).

Consider `Cc1c2cc[n+](C)cc2c(C)c2c1sc1ccccc12`, for which the GI50 in [1] was 0.069 µM (active); in test [2] it was 3.33 µM (inactive); in test [3], 2.9 µM (inactive); in test [4], 1.22 µM (inactive); in test [5] it was 0.661 µM (active); in test [6], 0.553 µM (active). Moreover, the GI50 is 1.12 µM (inactive) in [7]; 0.199 µM (active) in test [8]; 0.114 µM (active) in [9]; 3.63 µM (inactive) in [10]; 1.48 µM (inactive) in [11]; 0.246 µM (active) in test [12]. The GI50 in test [13] is 1.63 µM (inactive); in test [14], 2.26 µM (inactive); in test [15], 0.452 µM (active); in test [16], 8.69 µM (inactive); in test [17] it was 2.39 µM (inactive); in test [18] it was 1.45 µM (inactive). For the same compound, the figures for the GI50 in test [19] and in test [20] were 3.85 µM (inactive) and 13.4 µM (inactive), respectively.
As to `COc1ccc(/C=C(/C#N)C(N)=O)c(OC)c1`, the GI50 in test [1] was > 100 µM (inactive); in test [2], 34 µM (inactive); in [3], 50.4 µM (inactive); in test [4] it was > 100 µM (inactive); in [5], > 100 µM (inactive); in test [6] it was 79.3 µM (inactive). The GI50 in test [7] was > 100 µM (inactive); in test [8], 72.1 µM (inactive); in [9], > 100 µM (inactive); in test [10], 64 µM (inactive); in test [11], 97.3 µM (inactive); in [12] it was 37.3 µM (inactive). Besides, the GI50 is 42.6 µM (inactive) in test [13]; 31.8 µM (inactive) in [14]; > 100 µM (inactive) in test [15]; 2.15 µM (inactive) in test [16]; > 100 µM (inactive) in [17]; 10.8 µM (inactive) in test [18]. Moreover, the GI50 in test [19] and in test [20] was > 100 µM (inactive) in each case.
With `FC(F)(F)c1ccccc1N1CCN(c2nc(-c3cccs3)nc3ccc(Br)cc23)CC1`, the GI50 in [1] is 36.5 µM (inactive); in [2], 36.4 µM (inactive); in test [3], 24.9 µM (inactive); in test [4] it was 11.2 µM (inactive); in test [5] it was 35 µM (inactive); in [6] it was 38.6 µM (inactive). For the same compound, the GI50 is 11.6 µM (inactive) in test [7]; 24.9 µM (inactive) in test [8]; 44.4 µM (inactive) in [9]; 33.2 µM (inactive) in test [10]; 11.7 µM (inactive) in test [11]; 31.6 µM (inactive) in test [12]. Moreover, the GI50 is 23 µM (inactive) in [13]; 63.1 µM (inactive) in test [14]; 50.4 µM (inactive) in test [15]; 47.8 µM (inactive) in test [16]; 21 µM (inactive) in test [17]; 71.3 µM (inactive) in test [18]. Also, the GI50 in test [19] is 29.5 µM (inactive); in test [20], 15.8 µM (inactive).
With `Nc1ncnn2c(C3OC(CO)C(O)C3O)ccc12` (stereo not given), the GI50 in [1] was 0.0875 µM (active); in test [2], 0.105 µM (active); in [3], 0.148 µM (active); in test [4], 0.147 µM (active); in [5], 0.237 µM (active); in test [6], 0.123 µM (active). In addition, the GI50 in test [7] was 0.21 µM (active); in test [8], 0.329 µM (active); in test [9], 0.125 µM (active); in test [10], 0.0216 µM (active); in test [11] it was 0.182 µM (active); in test [12], 0.0364 µM (active). Besides, the GI50 in test [13] was 0.136 µM (active); in [14], 0.163 µM (active); in test [15], 0.261 µM (active); in test [16], 0.12 µM (active); in test [17] it was 0.153 µM (active); in test [18], 0.155 µM (active). Moreover, the values for the GI50 in [19] and in test [20] were 0.148 µM (active) and 0.214 µM (active), respectively.
As for `CCOC1C=CC(=O)C(CO)O1` (stereo not given), the GI50 was 23.3 µM (inactive) in test [1]; 5.57 µM (inactive) in test [2]; 19.4 µM (inactive) in [3]; 2.14 µM (inactive) in test [4]; 1.67 µM (inactive) in test [5]; 9.23 µM (inactive) in [6]. In addition, the GI50 in test [7] was 12.9 µM (inactive); in test [8], 15.3 µM (inactive); in [9], 12.7 µM (inactive); in [10], 5.12 µM (inactive); in test [11], 13.8 µM (inactive); in test [12], 1.99 µM (inactive). Besides, the GI50 is 12.4 µM (inactive) in test [13]; 6.67 µM (inactive) in test [14]; 13.2 µM (inactive) in [15]; 2.21 µM (inactive) in [16]; 17.3 µM (inactive) in [17]; 26.2 µM (inactive) in test [18]. Also, the GI50 in test [19] is 8.26 µM (inactive); in test [20] it was 8.43 µM (inactive).
